The values below are quoted from earlier work in patent US8415273B2, “Broadleaf perennial weed control agent for grass, and method for controlling broadleaf perennial weeds in grass” (Nippon Soda Co., Ltd., priority 2007, dated 2013).

The subject of data set [1] is turf grasses such as Zoysia japonica and Zoysia tenuifolia. Conditions: soil-based herbicide.
Data set [2] has as its system broadleaf annual weeds such as chickweed and gramineous weeds such as crabgrass.

For `NC(=O)c1nc(-c2ccccc2)n(-c2ccc(Cl)c(COCC(F)(F)C(F)(F)F)c2)n1` [flupoxam, 1-[4-chloro-3-[(2,2,3,3,3-pentafluoropropoxy)methyl]phenyl]-5-phenyl-1H-1,2,4-triazole-3-carboxamide], the “Detrimental effects on turf grasses” value in data set [1] is given as “no detrimental effects”. The “Control action on annual weeds in grass” value in data set [2] was “powerful control action”.
